{"source": "patent US20260272850A1", "about": "“Cannabinoid Dosing Regime for Acne” (priority 2018, published 2026)", "key": {"[1]": {"test": "Franz-type diffusion cell skin permeation of CBD from BTX 1503 5% Solution", "format": "in vitro ADME", "conditions": "48 hours; equivalent of ng/g of tissue", "procedure": "Dermatomed skin from a single donor was mounted in a Franz-type diffusion cell (0.55 cm^2 receptor fluid exposure surface area) and dosed with 5 ul of 2-[3-methyl-6-(1-methylethenyl)-2-cyclohexen-1-yl]-5-pentyl-1,3-benzenediol (CBD), BTX 1503 5% Solution, formulated in an mixture of a volatile solvent (hexylmethyldisiloxane/polymethylsiloxane—93% w/w), and residual solvent (arlamol E—2% w/w) at a concentration of 5.0% (w/w; 35.5 mg/ml). Following dosing, receptor phase samples were collected at 4, 10, 24 and 48 hours; after which the study was terminated.\nThe residual formulation was removed by tape stripping and the epidermis and dermis separated by blunt dissection. The levels of CBD in the epidermis, dermis, and receptor fluid samples were then analyzed using a bioanalytical method with LC-MS/MS detection."}, "[2]": {"test": "Healthy volunteer study of single and multiple-dose BTX 1503 5% Solution (BTX.2017.001): pharmacokinetics", "format": "in vivo, human (healthy volunteers)", "conditions": "for Tmax: Day 1; for Cmax: topical or ocular, topical, Day 1, plasma CBD, read-out: mean Cmax after the first dose", "procedure": "The pharmacokinetics (PK) of single and multiple-dose administration of BTX 1503 5% Solution were evaluated in a healthy volunteer study. In this study, BTX 1503 5% Solution was applied as a single dose either QD or BID (12 hrs apart) on Day 1 followed by a 6-day washout period, then either QD or BID for 14 days (Day 8 to Day 21). Five subjects were enrolled in each cohort and doses were escalated for each sequential cohort enrolled with the following doses. • Cohort 1: 37.5 mg CBD/day or 0.066 mg/cm^2/day applied as 1 mL of BTX 1503 5% (w/w) QD • Cohort 2: 75 mg CBD/day or 0.133 mg/cm^2/day applied as 1 mL BTX 1503 5% (w/w) BID • Cohort 3: 112.5 mg CBD/day or 0.199 mg/cm^2/day applied as 3 mL of BTX 1503 5% (w/w) QD • Cohort 4: 225 mg CBD/day or 0.398 mg/cm^2/day applied as 3 mL of BTX 1503 5% (w/w) BID Area of application assumed to be 565 cm^2 (i.e., on the face), which is reported by the European Union Scientific Committee on Consumer Safety (SCCS) to be half of the surface area for a female head (SCCS Notes of Guidance for the Testing of Cosmetic Substances and Their Safety Evaluation, 8th edition, 2012; Table 2).\nBlood samples were taken for PK assessments on Day 1 (Baseline) at pre-dose (15 mins before dosing), 30, 60 and 90 mins and 2, 2.5, 3, 4, 6, 8 and 12 hrs, and 24 hrs after the first single dose. For participants that received BID dosing, samples were also taken at 30, 60 and 90 mins and 2, 2.5, 3, 4, 6, and 8 hrs after the second dose on Day 1.\nDuring the multiple dose (14-day) phase, trough levels were obtained before the morning application on Day 15. On Day 21, blood samples were taken for PK assessments at pre-dose (15 mins before dosing), 30, 60 and 90 mins and 2, 2.5, 3, 4, 6, 8 and 12 hrs, 24 hrs and 48 hrs after the morning dose. For participants that received BID dosing, samples were also be taken at 30, 60 and 90 mins and 2, 2.5, 3, 4, 6, and 8 hrs after the second dose on Day 21. A sample was obtained on Day 23, 48 hrs after the last morning dose."}, "[3]": {"tested_on": "rats", "conditions": "injected; cited from earlier work"}, "[4]": {"tested_on": "immortalized human sebocytes", "conditions": "cited from earlier work"}, "[5]": {"biological_target": "human vanilloid receptor type 1 (VR1) (Homo sapiens, UniProt Q8NER1)", "sequence (Q8NER1 whole entry)": "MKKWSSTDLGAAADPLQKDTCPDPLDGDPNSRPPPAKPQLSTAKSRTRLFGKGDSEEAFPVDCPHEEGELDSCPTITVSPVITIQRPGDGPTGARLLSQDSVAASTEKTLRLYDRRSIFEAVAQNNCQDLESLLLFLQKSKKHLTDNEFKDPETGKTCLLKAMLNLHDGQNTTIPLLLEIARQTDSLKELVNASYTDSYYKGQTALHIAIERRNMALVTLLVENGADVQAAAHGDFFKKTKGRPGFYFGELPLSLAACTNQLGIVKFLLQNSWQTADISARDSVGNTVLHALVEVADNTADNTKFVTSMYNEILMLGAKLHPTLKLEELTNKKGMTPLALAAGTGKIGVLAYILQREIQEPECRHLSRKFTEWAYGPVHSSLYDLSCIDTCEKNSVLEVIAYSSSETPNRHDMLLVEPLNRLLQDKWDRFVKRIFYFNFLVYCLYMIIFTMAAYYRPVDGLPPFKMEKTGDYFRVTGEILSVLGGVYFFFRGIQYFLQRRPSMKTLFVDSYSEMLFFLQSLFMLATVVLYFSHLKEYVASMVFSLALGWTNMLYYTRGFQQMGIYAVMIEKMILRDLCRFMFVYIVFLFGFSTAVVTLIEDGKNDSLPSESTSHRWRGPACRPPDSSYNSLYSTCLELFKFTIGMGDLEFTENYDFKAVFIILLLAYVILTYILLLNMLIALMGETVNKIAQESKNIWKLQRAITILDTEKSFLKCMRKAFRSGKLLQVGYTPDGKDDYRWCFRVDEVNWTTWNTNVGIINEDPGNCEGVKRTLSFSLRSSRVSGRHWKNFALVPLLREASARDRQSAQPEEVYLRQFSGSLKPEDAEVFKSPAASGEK", "conditions": "in vitro; cited from earlier work"}, "[6]": {"tested_on": "sensitized guinea-pigs", "conditions": "intravenous administration; cited from earlier work"}, "[7]": {"tested_on": "skin of minipigs", "test": "28-day study in minipigs: dermal tolerability and exposure", "format": "in vivo", "conditions": "no observed effect in minipigs", "procedure": "This dose level is well below that tested and shown to be well-tolerated in a 28-day study in minipigs. Specifically, the NOAEL for dermal tolerability of BTX 1503 5% (w/w) on the skin of minipigs was 3.0 mg/cm^2/day (150 mg/kg/day), which is ~7.5 times the daily dose delivered in this study. In addition, based on the ratio of the mean Cmax observed in the 28-day minipig study to the mean Cmax in the 3 mL BID cohort in the Phase 1 a healthy volunteer study, there was >300 times the level of CBD, with no observed effect, in the minipigs."}, "[8]": {"test": "Open-label study in patients with acne vulgaris: study drug (CBD) plasma levels", "format": "in vivo, human", "conditions": "throughout the study, 225 mg CBD/day topical", "from_the_text": "Subjects returned to the clinic on Day 14 for vital signs, cutaneous tolerability assessments, and a blood draw for study drug plasma levels. Subjects were also queried for adverse events (AEs) and changes in concomitant medications. Diaries and study drug were returned and reviewed for compliance. In addition, the subject applied their morning dose of study drug during the visit for the clinical site to confirm correct application techniques. Another 14 days of study drug were dispensed along with the diary for the last two weeks of study drug treatment. […]\nSafety was the primary outcome measure. The safety outcomes were measured through assessment of: • AEs monitored from time of consent through the end of study. • Cutaneous tolerability (erythema, scaling, dryness, burning/stinging, and irritant/allergic contact dermatitis) collected at Baseline, Day 14, Day 28, and Day 35 and graded using the following scale: 0, None; 1, Slight; 2, Moderate; 3, Severe. • Vital signs (temperature, blood pressure, and pulse) obtained at Baseline, Day 14, Day 28 and Day 35. • Complete blood count (CBC), chemistry, and urinalysis at Baseline and at Day 28. Blood levels of study drug will be measured at Baseline and prior to dosing (trough level) on Day 14, Day 28, and Day 35. […]"}}, "note": "Like-named read-outs stand apart in the source and are kept apart here.", "data": [{"smiles": "C=C(C)C1CCC(C)=CC1c1c(O)cc(CCCCC)cc1O", "note": "(centres unmarked) [CBD, 2-[3-methyl-6-(1-methylethenyl)-2-cyclohexen-1-yl]-5-pentyl-1,3-benzenediol]", "values": [{"measurement": "dermis concentration", "setting": "[1]", "value": "~ 1,933 ng/mL"}, {"measurement": "mean pre-dose level on Day 21", "setting": "[2]; Cohort 1", "value": 0.545, "unit": "ng/mL"}, {"measurement": "mean pre-dose level on Day 21", "setting": "[2]; Cohort 2", "value": 0.770, "unit": "ng/mL"}, {"measurement": "mean pre-dose level on Day 21", "setting": "[2]; Cohort 3", "value": 0.715, "unit": "ng/mL"}, {"measurement": "mean pre-dose level on Day 21", "setting": "[2]; Cohort 4", "value": 1.553, "unit": "ng/mL"}, {"measurement": "concentration at 15 study day", "setting": "[2]; human, in vivo, 75 mg CBD/day, Cohort 2, 75 mg CBD/day, multiple dose phase, read-out: mean CBD trough level on Day 15", "value": 0.781, "unit": "ng/mL"}, {"measurement": "concentration at 15 study day", "setting": "[2]; human, in vivo, 112.5 mg CBD/day, Cohort 3, 112.5 mg CBD/day, multiple dose phase, read-out: mean CBD trough level on Day 15", "value": 0.525, "unit": "ng/mL"}, {"measurement": "concentration at 15 study day", "setting": "[2]; human, in vivo, 225 mg CBD/day, Cohort 4, 225 mg CBD/day, multiple dose phase, all subjects, read-out: mean CBD trough level on Day 15", "value": 2.11, "unit": "ng/mL"}, {"measurement": "concentration at 15 study day", "setting": "[2]; human, in vivo, 225 mg CBD/day, Cohort 4, one outlier, read-out: CBD trough level on Day 15, outlier subject", "value": 5.99, "unit": "ng/mL"}, {"measurement": "concentration at 15 study day", "setting": "[2]; human, in vivo, 225 mg CBD/day, Cohort 4, without the outlier subject, read-out: mean CBD trough level on Day 15", "value": 1.16, "unit": "ng/mL"}, {"measurement": "Tmax", "setting": "[2]; human, in vivo, after BID dosing", "value": "18 to 20", "unit": "h"}, {"measurement": "Tmax", "setting": "[2]; human, in vivo, after QD dosing", "value": 12, "unit": "h"}, {"measurement": "concentration at 7 days", "setting": "[2]; human, in vivo, all cohorts, study Day 8, seven days after initial dosing, read-out: Levels of CBD (below the limits of quantitation)", "value": "< 0.2", "unit": "ng/mL"}, {"measurement": "Cmax", "setting": "[2]; human, in vivo, Cohort 1: 37.5 mg CBD/day, 1 mL BTX 1503 5% QD", "value": 0.309, "unit": "ng/mL"}, {"measurement": "Cmax", "setting": "[2]; human, in vivo, Cohort 2: 75 mg CBD/day, 1 mL BTX 1503 5% BID", "value": 0.562, "unit": "ng/mL"}, {"measurement": "Cmax", "setting": "[2]; human, in vivo, Cohort 3: 112.5 mg CBD/day, 3 mL BTX 1503 5% QD", "value": 0.626, "unit": "ng/mL"}, {"measurement": "Cmax", "setting": "[2]; human, in vivo, Cohort 4: 225 mg CBD/day, 3 mL BTX 1503 5% BID", "value": 0.876, "unit": "ng/mL"}, {"measurement": "effect on cardiac inflammation", "setting": "[3]", "value": "attenuated cardiac inflammation"}, {"measurement": "effects on sebocytes", "setting": "[4]", "value": "lipostatic, anti-proliferative, and anti-inflammatory effects"}, {"measurement": "effect on VR1", "setting": "[5]", "value": "stimulate"}, {"measurement": "effect on airway obstruction", "setting": "[6]", "value": "reduced airway obstruction"}, {"measurement": "ratio of mean Cmax in 28-day minipig study to mean Cmax in 3 mL BID healthy volunteer cohort", "setting": "[7]", "value": "> 300", "unit": "times"}, {"measurement": "Study drug (CBD) plasma levels", "setting": "[8]", "value": "low"}]}]}
